From EP0053029A1, “Non enkephalin-like peptides, their production, compositions containing them, and their medical and veterinary use” (PENINSULA LABORATORIES INCORPORATED, priority 1980, dated 1982)
Where “and” joins values, the source holds several entries; their conditions need not be identical. Equal values may be shown once. Where a SMILES comes first, the peptide text is derived from it. [ ]: non-standard residue; d: D form. NMeF = CN[C@@H](Cc1ccccc1)C(=O)O; Thz = O=C(O)[C@@H]1CSCN1

Tested on: rat
Assay: rat tail withdrawal assay (hot water, 55°C)
Assay type: in vivo
Conditions: for analgesic activity: general statement, route and dose not stated
Protocol: The acetate salts of formula I described in Examples 1 to 3 were tested for analgesic activity in the rat tail withdrawal assay. […] Latencies of 5 seconds or greater indicate strong analgesic activity and 20 seconds is a maximum response in this test. The peptides were administered intracisternally or intravenously.
The formula I acetate of Example 2 was dissolved in a sufficient sterile, distilled water to give an injection volume of 1 ml/kg of body weight and administered to rats as a bolus i.v. injection at several dosages.

**Q.** How did the analgesic activity turn out when `NC(=O)[C@@H]1CSCN1C(=O)[C@H](Cc1ccccc1)NC(=O)[C@@H]1CCCN1C(=O)[C@@H](N)Cc1ccc(O)cc1` [Example 1, L-Tyrosyl-L-Prolyl-L-Phenylalanyl-L-Thiazolidine-4-carboxyl·amide Acetate] (H-YPF[Thz]-NH2) was run?
**A.** high analgesic activity

**Q.** For `CN(C(=O)[C@@H]1CCCN1C(=O)[C@@H](N)Cc1ccc(O)cc1)[C@@H](Cc1ccccc1)C(=O)N1CCC[C@@H]1CO` [Example 3, L-Tyrosyl-L-Prolyl-N-Methyl-L-Phenylalanyl-D-Prolinol· Acetate], which analgesic activity is on record?
**A.** high analgesic activity

**Q.** Which analgesic activity does the source give for `CN(C(=O)[C@@H]1CSCN1C(=O)[C@@H](N)Cc1ccc(O)cc1)[C@@H](Cc1ccccc1)C(=O)N1CCC[C@@H]1C(N)=O` [Tyr-Thz-N-Me-Phe-D-Pro-NFi2] (H-Y[Thz][NMeF][dP]-NH2) here?
**A.** high analgesic activity

**Q.** Which “Latency of Tail Withdrawal” value (rat, in vivo, iv, 2.5 mg/kg) does the source give for `CN1CC[C@]23c4c5ccc(O)c4O[C@H]2[C@@H](O)C=C[C@H]3[C@H]1C5` [morphine, reference compound] here?
**A.** 5 s and 6 s and 4.1 s

**Q.** And the Comments (rat, in vivo, iv, 5 mg/kg)?
**A.** Catalepsy Rigidity

**Q.** And the “Latency of Tail Withdrawal” value (rat, in vivo, iv, 5 mg/kg)?
**A.** 20 s

**Q.** And the “Latency of Tail Withdrawal” value (rat, in vivo, iv, 7.5 mg/kg)?
**A.** 20 s

**Q.** How did the “Latency of Tail Withdrawal” value (i.v. bolus, 2.5 mg/kg, 5 min. after injection) turn out when `CN(C(=O)[C@@H]1CCCN1C(=O)[C@@H](N)Cc1ccc(O)cc1)[C@@H](Cc1ccccc1)C(=O)N1CCC[C@@H]1C(N)=O` [Example 2, L-Tyrosyl-L-Prolyl-N-Methyl-L-Phenylalanyl-D-Prolinamide-Acetate] (H-YP[NMeF][dP]-NH2) was run?
**A.** 2 s

**Q.** What about the “Latency of Tail Withdrawal” value (i.v. bolus, 5.0 mg/kg, 5 min. after injection) of the same compound?
**A.** 8.4 ± 3.6 s

**Q.** What about the “Latency of Tail Withdrawal” value (i.v. bolus, 10.0 mg/kg, 5 min. after injection) of the same compound?
**A.** 10.2 ± 3.2 s

**Q.** What about the “Latency of Tail Withdrawal” value (i.v. bolus, 10.0 mg/kg, 15 min. after injection) of the same compound?
**A.** 11.1 ± 3.1 s

**Q.** What about the “Latency of Tail Withdrawal” value (i.v. bolus, 10.0 mg/kg, 30 min. after injection) of the same compound?
**A.** 7.5 ± 2.5 s

**Q.** What about the “Latency of Tail Withdrawal” value (i.v. bolus, 10.0 mg/kg, 60 min. after injection) of the same compound?
**A.** 6.4 ± 2.3 s

**Q.** What about the “Latency of Tail Withdrawal” value (i.v., 2.5 mg/kg, 15 min. after injection) of the same compound?
**A.** 3.5 s

**Q.** What about the “Latency of Tail Withdrawal” value (i.v., 2.5 mg/kg, 30 min. after injection) of the same compound?
**A.** 3.0 s

**Q.** What about the “Latency of Tail Withdrawal” value (i.v., 2.5 mg/kg, 60 min. after injection) of the same compound?
**A.** 2.5 s

**Q.** What about the “Latency of Tail Withdrawal” value (i.v., 5.0 mg/kg, 15 min. after injection) of the same compound?
**A.** 10.3 ± 3.1 s

**Q.** And the “Latency of Tail Withdrawal” value (i.v., 5.0 mg/kg, 30 min. after injection)?
**A.** 9.1 ± 3.4 s

**Q.** And the “Latency of Tail Withdrawal” value (i.v., 5.0 mg/kg, 60 min. after injection)?
**A.** 7.8 ± 3.0 s

**Q.** What about the Comments (i.v., 5.0 mg/kg, observed behaviour) of the same compound?
**A.** Individual rats showed 20 sec. latencies and morphine-like symptoms
